Assay [1] addresses T1, PfHDAC-1 (histone deacetylase-1) (Plasmodium falciparum, UniProt Q9XYC7). Put plainly: biochemical. More on the design: gene HDAC1.
Assay [2] concerns the target T2, hSphK-1 (sphingosine kinase 1) (Homo sapiens, UniProt Q9NYA1).
T2 construct: gene SPHK1; full-length, 6×His-SphK-1 (1155 bp CDS)
Put plainly: fluorometric conversion of NBD-Sph ([…]) to NBD-S1P by purified rSphK-1. Type of assay: biochemical.

The next assay has as its target T3, hHDAC-1 (Homo sapiens, UniProt Q13547).
T3 construct: gene HDAC1
Briefly: microscale thermophoresis. The format is binding. (Microscale thermophoresis detects binding through changes in fluorescence in a small temperature gradient.)

For assay [3], the target named is T1, PfHDAC-1 (histone deacetylase-1). Put plainly: microscale thermophoresis; also lipid overlay, S1P-bead pull-down, and […] inhibition of the recombinant enzyme at […]. Type of assay: binding. More on the design: gene HDAC1; full-length, 6×His-PfHDAC-1 (1380 bp CDS from Pf3D7).

T1 sequence (Q9XYC7 1-449): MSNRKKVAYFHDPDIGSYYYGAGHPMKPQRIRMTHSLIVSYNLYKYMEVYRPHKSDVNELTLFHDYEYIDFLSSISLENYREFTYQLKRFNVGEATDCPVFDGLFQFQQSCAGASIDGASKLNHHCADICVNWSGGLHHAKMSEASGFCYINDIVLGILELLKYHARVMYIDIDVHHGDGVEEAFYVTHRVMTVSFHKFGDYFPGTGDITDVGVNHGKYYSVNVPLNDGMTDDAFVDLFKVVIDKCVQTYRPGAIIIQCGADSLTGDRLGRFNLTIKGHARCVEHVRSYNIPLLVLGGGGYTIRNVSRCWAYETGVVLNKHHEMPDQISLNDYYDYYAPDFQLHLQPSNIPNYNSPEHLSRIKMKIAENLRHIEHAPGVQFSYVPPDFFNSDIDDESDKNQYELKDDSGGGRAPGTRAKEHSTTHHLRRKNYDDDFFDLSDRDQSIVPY
T3 sequence (Q13547 whole entry): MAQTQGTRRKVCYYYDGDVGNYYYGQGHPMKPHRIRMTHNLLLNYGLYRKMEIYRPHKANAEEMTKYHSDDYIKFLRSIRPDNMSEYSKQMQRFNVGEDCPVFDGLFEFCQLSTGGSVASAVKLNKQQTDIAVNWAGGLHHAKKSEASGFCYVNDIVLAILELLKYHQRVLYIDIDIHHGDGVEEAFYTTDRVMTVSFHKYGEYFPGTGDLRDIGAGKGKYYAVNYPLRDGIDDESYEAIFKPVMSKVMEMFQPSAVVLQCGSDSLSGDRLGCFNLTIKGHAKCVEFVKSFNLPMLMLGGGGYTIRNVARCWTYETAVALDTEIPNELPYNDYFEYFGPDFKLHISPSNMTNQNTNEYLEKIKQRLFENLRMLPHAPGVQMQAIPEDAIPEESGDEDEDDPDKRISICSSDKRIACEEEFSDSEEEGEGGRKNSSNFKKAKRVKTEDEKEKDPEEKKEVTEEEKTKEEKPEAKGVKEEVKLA
T2 sequence (Q9NYA1 whole entry): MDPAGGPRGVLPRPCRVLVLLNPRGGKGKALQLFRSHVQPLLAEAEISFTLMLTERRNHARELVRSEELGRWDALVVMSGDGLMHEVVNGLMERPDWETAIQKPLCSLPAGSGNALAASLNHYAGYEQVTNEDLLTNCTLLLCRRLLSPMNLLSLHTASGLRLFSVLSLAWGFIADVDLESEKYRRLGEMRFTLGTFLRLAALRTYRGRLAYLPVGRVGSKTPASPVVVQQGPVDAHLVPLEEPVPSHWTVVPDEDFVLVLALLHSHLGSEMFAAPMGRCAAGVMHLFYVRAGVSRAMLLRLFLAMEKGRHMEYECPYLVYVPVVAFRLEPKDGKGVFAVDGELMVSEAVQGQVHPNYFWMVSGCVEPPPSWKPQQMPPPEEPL

Usually Kd stands for the equilibrium constant for the complex coming apart. Regarding `O=C(CCCCCCC(=O)Nc1ccccc1)NO` [SAHA, Suberoylanilide Hydroxamic Acid], the equilibrium dissociation constant (Kd) in assay [1] was found to be 2090 ± 450 nM.

For the compound `N[C@@H](CO)[C@H](O)/C=C/CCCCCCCCCCCCCNc1ccc([N+](=O)[O-])c2nonc12` [NBD-Sph, NBD-Sphingosine], in assay [2], the “fluorometric conversion of NBD-Sph (10 μM) to NBD-S1P by purified rSphK-1” value is “fluorimetry-based enzymatic assay using NBD-sphingosine”. As to `CCCCCCCCCCCCC/C=C/[C@@H](O)[C@@H](N)COP(=O)(O)O` [S1P, Sphingosine-1-Phosphate], the Kd on hHDAC-1 was 1610 ± 800 nM; in assay [3], 177 ± 24 nM.

(Values after PMC10100792, “Host-Erythrocytic Sphingosine-1-Phosphate Regulates Plasmodium Histone Deacetylase Activity and Exhibits Epigenetic Control over Cell Death and Differentiation” (Microbiology Spectrum, 2023).)
